# Test results from US8399512B2, “Biocompatible biodegradable fumagillin analog conjugates” (Mersana Therapeutics, Inc., priority 2007, dated 2013).
# How the values were obtained:
# [1] = system: human umbilical vein endothelial cells (HUVECs); test: Inhibitory effect on HUVEC cell growth (MTS/PES colorimetry); assay type: cell-based; conditions: Homo sapiens, 120 h, cultured 5 days, MTS/PES absorbance 490 nm
# Description: Using human umbilical vein endothelial cells (HUVECs), the effect of the fumagillin analog conjugates and the fumagillin analogs on cell growth was evaluated.
# The HUVECs were added to M199 medium supplemented with 20% FBS, after which the cells were incubated at 37° C. under 5% CO2. 96-well plates were seeded at 5,000 cells/well in a total volume of 100 μL. The cells were left overnight to attach to the plate. Cells were subcultured a maximum of 15 times before being discarded.
# To evaluate the inhibitory activity of the fumagillin conjugate or the fumagillin analog alone on the growth of HUVEC cells, the conjugate or fumagillin analog was dissolved in the required amount of 0.9% saline, vortexed briefly to wet and disperse the solids, followed by vortexing for a total of 30 min. […] The cells were treated with the conjugate solution or fumagillin analog solution at various concentrations ranging from 30 nM to 0.01 nM, and cultured for 5 days at 37° C.
# Colorimetry was performed to determine the extent of cell growth by adding 20 μL of MTS/PES reagent to each well, incubation for 4 h at 37° C. followed by measuring the absorbance at 490 nm.
# [2] = molecular target: human MetAP-2 enzyme (Homo sapiens, UniProt P50579); test: MetAP-2 inhibition (release of AMC from Met-Gly-Pro-AMC); assay type: biochemical
# Description: The test samples were evaluated for their ability to inhibit human MetAP-2 enzyme. The compounds were added at varying concentrations to human MetAP-2 enzyme (6 nM) in a buffered medium containing 20 mM Hepes, pH 7.4, 100 mM KCl, 0.1 mM Co(II), 10% glycerol, 5 mg/ml of L-Amino acid oxidase, 10 mg/ml of peroxidase, 10 mg/ml of o-dianisidine, and 2 mM of Met-Ser-Ala at 37° C. After 10 minutes incubation the reaction is started by adding the substrate Met-Gly-Pro-AMC to 2 mM and the release of AMC is measured with a Decan Plate reader (Excitation at 345 nm, emission at 445 nm). The kinetic data is recorded at 30 sec intervals for 30 min. Table 1 lists some of the conjugates and compounds tested along with their approximate IC50 values for inhibiting Met-AP2.
# [3] = system: B16F10 tumor cells; test: Tumor growth delay in B16F10 mouse melanoma; assay type: in vivo; conditions: IV, q3d × 4, BDF1 mice
# Description: BDF1 female mice (N=6) with 1×10^6 B16F10 tumor cells positioned subcutaneous in the flank were treated with various fumagillin conjugates of the invention. Tumor growth was monitored in parallel with positive and negative controls of cyclophosphamide and saline respectively. Treatment began when tumors reached an average size of 80-120 mg and tumor volumes were measured two times per week until animals reached an endpoint tumor volume of 2 grams or 45 days, whichever came first. Conjugates were administered as solutions in saline intravenously at dose levels of 30-100 mg/kg (expressed as fumagillin analog equivalents) on a schedule of q3dx4. Treatment outcomes were assessed in terms of percent tumor growth delay (% TGD), (see FIG. 1) defined as the percent increase in median time to endpoint for mice treated with an agent compared to those treated with saline.
# [4] = system: B16F10 tumor cells; test: Tumor growth delay in B16F10 mouse melanoma; assay type: in vivo; conditions: 80 mg/kg fumagillin analog equiv., IV, qod × 4, BDF1 mice
# [5] = Open field activity levels in mice; assay type: in vivo, mouse; conditions: C57B1/6 mice, 50-100 mg/kg for four weeks; conjugates IV, TNP-470 subcutaneously; versus saline
# Description: C57B1/6 female mice (N=8) were housed until they reached 11 weeks of age. Animals were then regularly administered with fumagillin conjugates or TNP-470 and their activity levels monitored in an open field arena. Activity levels were assessed with saline as a control. Conjugates were administered as solutions in saline intravenously at dose levels of 50-100 mg/kg (expressed as fumagillin-analog equivalents) and TNP-470 was administered subcutaneously at dose levels of 50-100 mg/kg. Dosing was performed for four weeks on schedules ranging from q2d to once weekly, and activity levels were observed four times throughout the study: (1) prior to compound administration, (2) after one week of dosing, (3) after two weeks of dosing, and (4) following the final week of dosing. Animals were placed in the open field arena for 10 minutes per trial and their activity monitored in terms of travel distance, peripheral squares crossed, center squares crossed, and rearing events.
# [6] = 80 mg/kg fumagillin analog equiv.
# Chain of human MetAP-2 enzyme (P50579 whole entry): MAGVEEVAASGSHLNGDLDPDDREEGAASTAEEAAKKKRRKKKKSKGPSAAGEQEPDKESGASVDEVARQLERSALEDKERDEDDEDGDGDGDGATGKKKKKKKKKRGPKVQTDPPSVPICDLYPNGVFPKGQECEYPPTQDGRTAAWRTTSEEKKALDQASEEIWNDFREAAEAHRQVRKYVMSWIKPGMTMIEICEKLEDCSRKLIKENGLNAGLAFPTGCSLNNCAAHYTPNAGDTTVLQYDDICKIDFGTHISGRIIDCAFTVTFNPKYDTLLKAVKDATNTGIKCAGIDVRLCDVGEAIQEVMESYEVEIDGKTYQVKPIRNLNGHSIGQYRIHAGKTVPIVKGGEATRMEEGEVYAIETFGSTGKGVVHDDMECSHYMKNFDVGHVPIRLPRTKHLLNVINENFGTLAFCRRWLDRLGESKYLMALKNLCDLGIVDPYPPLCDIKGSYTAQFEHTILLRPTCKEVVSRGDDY
SMILES,IC50 [1],IC50 [2],"% TGD [3, 6]",further results
CO[C@H]1[C@H](C2(C)O[C@@H]2CC=C(C)C)[C@]2(CC[C@H]1OC(=O)NCc1ccc(N)cc1)CO2 (some centres unmarked) [Compound 8],< 25 nM,< 10 nM,–,–
CO[C@H]1[C@H](C2(C)O[C@@H]2CC=C(C)C)[C@]2(CC[C@H]1OC(=O)NC(=O)CSCCNC(=O)C1CCCN1C(=O)OCC1c3ccccc3-c3ccccc31)CO2 (some centres unmarked) [Compound 31],< 25 nM,–,20-50%,–
COc1ccc2[nH]cc(CCC(=O)O[C@@H]3CC[C@]4(CO4)[C@@H](C4(C)O[C@@H]4CC=C(C)C)[C@@H]3OC)c2c1 (some centres unmarked) [Compound 32],< 25 nM,–,20-50%,–
CO[C@H]1[C@H](C2(C)O[C@@H]2CC=C(C)C)[C@]2(CC[C@H]1OC(=O)C1CCC(CNC(=O)OCC3c4ccccc4-c4ccccc43)CC1)CO2 (some centres unmarked) [Compound 33],> 30 nM,–,–,% TGD ([3]; 65 mg/kg fumagillin analog equiv.): 5-20%
CO[C@H]1[C@H](C2(C)O[C@@H]2CC=C(C)C)[C@]2(CC[C@H]1OC(=O)NC(=O)CSc1cccc(N)c1)CO2 (some centres unmarked) [Compound 35],< 25 nM,–,20-50%,–
CO[C@H]1[C@H](C2(C)O[C@@H]2CC=C(C)C)[C@]2(CC[C@H]1NC(=O)C13CCC(C(=O)NCCCO)(CC1)CC3)CO2 (some centres unmarked) [Compound 38],25 to 100 nM,–,5-20%,–
CO[C@@H]1[C@H](NC(=O)NC(=O)CSc2ccc(N)cc2)CC[C@]2(CO2)[C@H]1[C@@]1(C)O[C@@H]1CC=C(C)C [Compound 39],< 25 nM,< 10 nM,–,–
CO[C@H]1[C@H](C2(C)O[C@@H]2CC=C(C)C)[C@]2(CC[C@H]1NC(=O)C13CCC(C(=O)O)(CC1)CC3)CO2 (some centres unmarked) [Compound 40],25 to 100 nM,–,–,% TGD [4]: 20-50%
CO[C@H]1[C@H](C2(C)O[C@@H]2CC=C(C)C)[C@]2(CC[C@H]1NC(=O)CCl)CO2 (some centres unmarked) [Compound 44],< 25 nM,–,5-20%,–
CO[C@H]1[C@H](C2(C)O[C@@H]2CC=C(C)C)[C@]2(CC[C@H]1OC(=O)NCCc1ccc(NC(=O)[C@H](C)N)cc1)CO2 (some centres unmarked) [Compound 51],< 25 nM,< 10 nM,–,–
"CO[C@H]1C([C@@]2(C)O[C@@H]2CC=C(C)C)[C@]2(CC[C@H]1OC(=O)N[C@@H](C(N)=O)C(C)C)CO2 (some centres unmarked) [PPI-2458, reference compound]",–,< 10 nM,–,–
"CO[C@H]1C([C@@]2(C)O[C@@H]2CC=C(C)C)[C@]2(CC[C@H]1OC(=O)NC(=O)CCl)CO2 (some centres unmarked) [TNP-470, reference compound]",–,< 10 nM,–,rearing-event activity levels [5]: increased rearing-event activity levels
